The source made the active and inactive calls.
Legend:
Genome polyprotein = Genome polyprotein (Hepatitis C virus, UniProt Q2Q167); test: disruption of hepatitis C core self-association – biochemical, TR-FRET, dose response (AID 2159); set-up: species or system Hepacivirus hominis;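 also: blocks dimerization of HCV core protein measured by TR-FRET between tagged core106 pairs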
[1] = biological target: T1, Small ubiquitin-related modifier 1 (Homo sapiens, UniProt P63165); test: SUMO1 protein interaction blockers, potency – biochemical, fluorescence polarization, uHTS hits, dose response (AID 624382); type: functional; conditions: read-out: IC50_Mean
T1 sequence (P63165 whole entry): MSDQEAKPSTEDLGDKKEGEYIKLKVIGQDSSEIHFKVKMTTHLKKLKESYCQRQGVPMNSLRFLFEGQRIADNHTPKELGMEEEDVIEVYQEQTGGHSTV

[2] = Counterscreen for IDE inhibitors: Luminescence-based cell-based high throughput dose response assay to identify compounds that are cytotoxic to HEK cells. [Related pubchem assays: 434962 (Primary screen (IDE inhibitors in singlicate)), 449730 (Counterscreen (Cytotoxicity in triplicate)), 435028 (Confirmation (IDE inhibitors in triplicate)) …; type: functional; conditions: HEK293
[3] = biological target: Induced myeloid leukemia cell differentiation protein Mcl-1 (Homo sapiens, UniProt Q07820); type: functional
Sequence of Induced myeloid leukemia cell differentiation protein Mcl-1 (Q07820 whole entry): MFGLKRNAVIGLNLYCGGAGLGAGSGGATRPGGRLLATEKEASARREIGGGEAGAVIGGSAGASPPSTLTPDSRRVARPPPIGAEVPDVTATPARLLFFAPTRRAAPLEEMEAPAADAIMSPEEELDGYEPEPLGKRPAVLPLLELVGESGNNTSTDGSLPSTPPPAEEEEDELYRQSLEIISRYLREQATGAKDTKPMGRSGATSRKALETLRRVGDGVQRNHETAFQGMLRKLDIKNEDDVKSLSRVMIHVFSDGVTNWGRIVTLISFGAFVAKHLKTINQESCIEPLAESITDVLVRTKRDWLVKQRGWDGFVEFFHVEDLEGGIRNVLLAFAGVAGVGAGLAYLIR

Insulin-degrading enzyme = Insulin-degrading enzyme (Homo sapiens, UniProt P14735); test: Dose Response: Fluorescence polarization-based cell-based high throughput dose response assay for inhibitors of insulin-degrading enzyme (IDE). [Related pubchem assays: 434962 (Primary screen (IDE inhibitors in singlicate)), 449730 (Counterscreen (Cytotoxicity in triplicate)), 435028 (Confirmation (IDE inhibitors in triplicate)), 434984 (Summary …; type: functional
Sequence of Insulin-degrading enzyme (P14735 whole entry): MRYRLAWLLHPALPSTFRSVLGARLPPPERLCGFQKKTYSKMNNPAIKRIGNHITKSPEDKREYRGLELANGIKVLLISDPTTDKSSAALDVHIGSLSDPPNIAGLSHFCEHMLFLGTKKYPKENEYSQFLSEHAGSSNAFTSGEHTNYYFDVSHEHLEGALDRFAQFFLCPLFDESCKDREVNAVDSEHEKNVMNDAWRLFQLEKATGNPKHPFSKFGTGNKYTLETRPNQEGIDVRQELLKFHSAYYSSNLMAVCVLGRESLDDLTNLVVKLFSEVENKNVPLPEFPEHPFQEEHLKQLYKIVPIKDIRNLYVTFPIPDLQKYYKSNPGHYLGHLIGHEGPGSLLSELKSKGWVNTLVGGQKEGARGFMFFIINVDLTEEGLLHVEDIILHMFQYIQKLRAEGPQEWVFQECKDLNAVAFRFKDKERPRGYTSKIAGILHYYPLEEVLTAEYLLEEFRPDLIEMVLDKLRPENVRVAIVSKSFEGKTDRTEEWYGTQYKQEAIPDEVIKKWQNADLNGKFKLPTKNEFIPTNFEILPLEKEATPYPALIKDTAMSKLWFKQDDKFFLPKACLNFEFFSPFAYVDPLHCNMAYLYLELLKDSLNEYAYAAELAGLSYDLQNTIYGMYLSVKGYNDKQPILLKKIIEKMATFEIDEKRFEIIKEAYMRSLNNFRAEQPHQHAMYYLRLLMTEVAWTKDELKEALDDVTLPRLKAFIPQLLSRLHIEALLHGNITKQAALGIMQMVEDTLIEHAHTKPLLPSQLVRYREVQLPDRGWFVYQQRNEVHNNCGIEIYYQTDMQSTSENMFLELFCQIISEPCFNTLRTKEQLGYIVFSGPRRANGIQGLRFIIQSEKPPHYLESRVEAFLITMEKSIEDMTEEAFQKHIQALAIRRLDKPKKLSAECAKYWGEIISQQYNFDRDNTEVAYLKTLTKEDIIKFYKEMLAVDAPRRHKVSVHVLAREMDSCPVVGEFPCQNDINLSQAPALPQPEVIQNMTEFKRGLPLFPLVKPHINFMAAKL

[4] = biological target: T1, Small ubiquitin-related modifier 1; test: SUMO1 protein-protein binding blockers, potency – biochemical, FRET, dose response (AID 624383); type: functional; conditions: read-out: IC50_Mean
Estrogen receptor = biological target: T2, Estrogen receptor (Homo sapiens, UniProt P03372); test: blockers of SRC-3 recruitment to ERα – biochemical, ELISA, streptavidin-HRP readout, orthogonal assay, confirmation (AID 1079)
T2 sequence (P03372 whole entry): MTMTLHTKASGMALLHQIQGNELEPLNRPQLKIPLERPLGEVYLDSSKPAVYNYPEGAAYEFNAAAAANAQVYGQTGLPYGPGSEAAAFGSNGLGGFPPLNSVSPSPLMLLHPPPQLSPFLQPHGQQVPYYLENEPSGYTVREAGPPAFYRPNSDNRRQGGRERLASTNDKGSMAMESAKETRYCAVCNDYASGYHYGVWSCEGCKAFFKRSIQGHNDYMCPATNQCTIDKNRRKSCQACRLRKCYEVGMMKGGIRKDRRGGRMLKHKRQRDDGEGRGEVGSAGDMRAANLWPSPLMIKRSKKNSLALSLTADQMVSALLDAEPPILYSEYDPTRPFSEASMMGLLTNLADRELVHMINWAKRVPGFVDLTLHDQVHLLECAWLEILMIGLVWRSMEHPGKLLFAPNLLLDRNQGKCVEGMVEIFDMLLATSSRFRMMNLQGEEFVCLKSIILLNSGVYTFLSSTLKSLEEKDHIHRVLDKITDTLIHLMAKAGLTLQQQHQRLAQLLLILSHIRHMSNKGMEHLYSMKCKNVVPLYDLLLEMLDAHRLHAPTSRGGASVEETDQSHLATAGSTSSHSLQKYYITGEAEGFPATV

[5] = loss of viability in HepG2 cells – cell-based, CellTiter-Glo, cherry-picked, cytotoxicity control for Shn3 inhibitor project, dose response (AID 624134); type: functional
HeLa = test: Cytotoxicity counterscreen assay for transcriptional activators of heat shock protein 70 (Hsp70). [Related pubchem assays: 1203, 1252 ]; type: functional; conditions: Homo sapiens;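 also: cells exposed to compound for 16 hours before readout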
HEK293 [6] = test: cells; conditions: Homo sapiens
[7] = non-specific 3'UTR reporter inhibition in Clone20-Shn3RL – cell-based, Renilla luciferase, cherry-picked, counter-screen for Shn3 inhibitor project, dose response (AID 624133); type: functional
[8] = Trypanosoma cruzi growth suppression in host cells – NIH3T3 host cells, beta-gal luminescence, confirmation (AID 2044); type: functional, cell-based;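 also: intracellular parasites grown in NIH/3T3 mouse fibroblasts as host cells; luminescent beta-galactosidase reporter signal from transgenic T. cruzi replicating inside host cells; inhibitors lower the luminescence signal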
HEK293 [9] = test: cells; conditions: Homo sapiens; remark: listed apart in the source
[10] = reduction of Shn3 3'UTR-driven luciferase in osteoblasts – cell-based, Clone20 osteoblasts, firefly luciferase, cherry-picked, dose response (AID 624132); type: functional;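 also: firefly luciferase luminescence from reporter carrying the Shn3 3'UTR in osteoblasts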
[11] = NIH3T3 cell viability loss – ATP luminescence, mouse fibroblasts, counter-screen, dose response (AID 2010); type: functional, cell-based;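 also: cells exposed to compound for about 90 hours before reading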
[12] = biological target: T3, Microphthalmia-associated transcription factor (Homo sapiens, UniProt O75030); test: reducers of TRPM1 reporter luminescence, concentration series – cell-based, SK-MEL-5, cherry-picked, set 3, MITF inhibitor project, dose response (AID 493073); type: functional;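 also: SK-MEL-5 melanoma cells with luciferase driven by the MITF target TRPM1 promoter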
T3 sequence (O75030 whole entry): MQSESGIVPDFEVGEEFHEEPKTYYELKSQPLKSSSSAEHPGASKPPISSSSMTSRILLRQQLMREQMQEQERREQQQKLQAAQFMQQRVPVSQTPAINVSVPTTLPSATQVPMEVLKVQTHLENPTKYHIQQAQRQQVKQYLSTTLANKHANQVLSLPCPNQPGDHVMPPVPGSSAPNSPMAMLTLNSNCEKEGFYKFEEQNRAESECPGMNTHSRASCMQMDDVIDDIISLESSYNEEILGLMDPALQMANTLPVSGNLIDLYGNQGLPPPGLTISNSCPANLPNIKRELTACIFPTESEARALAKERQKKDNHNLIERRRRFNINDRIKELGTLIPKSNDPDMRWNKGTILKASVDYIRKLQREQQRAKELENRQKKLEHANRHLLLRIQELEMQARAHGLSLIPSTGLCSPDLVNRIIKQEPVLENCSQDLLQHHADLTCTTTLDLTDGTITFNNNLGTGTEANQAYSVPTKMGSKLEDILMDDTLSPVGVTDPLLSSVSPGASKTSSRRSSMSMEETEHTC

[13] = Luminescence Cell-Based Dose Confirmation HTS to Identify Activators of 5'UTR Stem-Loop Driven Alpha-Synuclein mRNA Translation in H4 Neuroglioblastoma Cells. [Related pubchem assays: 1829 (Project Summary), 1814 (Primary HTS)]; type: functional
Streptokinase A = biological target: T4, Streptokinase A (Streptococcus pyogenes serotype M1, UniProt P10520); test: viability-normalized secreted streptokinase activity reduction – plasminogen activation absorbance, OD405, dose response (AID 1914); type: functional, Streptococcus pyogenes M1 GAS;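 also: secreted streptokinase activity via plasminogen activation per viability signal from cell pellet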
T4 sequence (P10520 whole entry): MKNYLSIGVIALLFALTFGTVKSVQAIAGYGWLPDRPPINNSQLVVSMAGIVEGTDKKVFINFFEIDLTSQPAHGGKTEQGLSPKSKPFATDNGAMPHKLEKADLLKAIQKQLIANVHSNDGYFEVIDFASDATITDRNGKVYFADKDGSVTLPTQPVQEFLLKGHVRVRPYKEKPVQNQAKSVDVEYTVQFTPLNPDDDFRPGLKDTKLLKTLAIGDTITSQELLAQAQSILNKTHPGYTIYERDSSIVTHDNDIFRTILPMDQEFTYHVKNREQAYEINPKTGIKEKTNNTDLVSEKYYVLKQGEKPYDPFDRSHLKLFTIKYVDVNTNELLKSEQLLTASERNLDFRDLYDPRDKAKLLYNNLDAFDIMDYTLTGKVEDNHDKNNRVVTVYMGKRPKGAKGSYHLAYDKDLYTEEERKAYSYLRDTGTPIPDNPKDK

INS1 = test: INS-1E survival protection against cytokine death – cell-based, luminescence, retest, dose response (AID 449756); type: functional; conditions: Rattus norvegicus, INS1;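 also: cell death triggered by IL-1 beta plus TNF-alpha plus IFN-gamma mixture; protective hits raise ATP signal compared with cytokine alone wells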
[14] = Luminescence Cell-Based Dose Response to Identify Activators of 5'UTR Stem-Loop Driven Prion Protein mRNA Translation in H4-C Neuroglioblastoma Cells. [Related pubchem assays: 1829 (Project Summary), 1814 (Primary HTS)]; type: functional
[15] = Luminescence Cell-Based Dose Response to Identify Activators of Luciferase Translation or Activity in H4-C Neuroglioblastoma Cells. [Related pubchem assays: 1829 (Project Summary), 1814 (Primary HTS)]; type: functional
[16] = Luminescence Cell-Based Dose Response HTS to Identify Activators of Luciferase Translation or Activity in H4 […] Cells. [Related pubchem assays: 1829 (Project Summary), 1814 (Primary HTS)]; type: functional
NS3 = NS3 (Hepatitis C virus, UniProt A3EZJ3); test: PubChem AID 2173; set-up: species or system Hepacivirus hominis
Sequence of NS3 (A3EZJ3 whole entry): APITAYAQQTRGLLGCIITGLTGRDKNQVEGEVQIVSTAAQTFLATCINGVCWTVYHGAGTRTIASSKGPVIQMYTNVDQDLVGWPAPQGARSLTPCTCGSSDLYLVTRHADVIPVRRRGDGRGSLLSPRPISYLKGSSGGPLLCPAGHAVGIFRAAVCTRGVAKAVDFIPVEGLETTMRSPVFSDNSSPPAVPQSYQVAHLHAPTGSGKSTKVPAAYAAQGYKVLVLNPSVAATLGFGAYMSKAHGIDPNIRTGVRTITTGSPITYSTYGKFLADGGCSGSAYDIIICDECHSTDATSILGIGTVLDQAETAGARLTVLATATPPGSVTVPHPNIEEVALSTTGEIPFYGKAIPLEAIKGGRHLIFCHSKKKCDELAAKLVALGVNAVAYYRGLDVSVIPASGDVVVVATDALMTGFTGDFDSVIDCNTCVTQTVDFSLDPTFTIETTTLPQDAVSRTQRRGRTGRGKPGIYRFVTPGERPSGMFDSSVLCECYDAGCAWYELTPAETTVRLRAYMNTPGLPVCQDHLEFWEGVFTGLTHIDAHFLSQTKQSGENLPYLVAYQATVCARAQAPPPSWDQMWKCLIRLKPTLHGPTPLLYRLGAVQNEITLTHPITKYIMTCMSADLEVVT

H4 = test: Luminescence Cell-Based Dose Response HTS to Identify Activators of 5'UTR Stem-Loop Driven Prion Protein mRNA Translation in H4 Neuroglioblastoma Cells. [Related pubchem assays: 1829 (Project Summary), 1814 (Primary HTS)]; type: functional; conditions: Homo sapiens
Streptococcus = test: GAS UMAA2166 growth inhibition – luminescence, BacTiterGlo, counter-screen for streptokinase expression inhibitor project, dose response (AID 1915); type: functional, organism-based;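 also: potency for reduction of bacterial viability or growth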
[17] = Luminescence Cell-Based Dose Confirmation to Identify Activators of 5'UTR Stem-Loop Driven Alpha-Synuclein mRNA Translation in H4 Neuroglioblastoma Cells. [Related pubchem assays: 1829 (Project Summary), 1814 (Primary HTS)]; type: functional
[18] = system: Streptococcus sp. 'group A'; test: Streptococcus pyogenes SK(-)GAS viability under kanamycin – luminescence, BacTiterGlo, confirmation, counter-screen for streptokinase expression inhibitor project, dose response (AID 1900); type: functional, organism-based
cells = type: functional, cell-based; conditions: HEK-CNG
HEK293 [19] = test: Fluorescence-based counterscreen for potentiators or agonists of NPY-Y2: cell-based high-throughput dose response assay to identify inhibitors of cyclic nucleotide gated ion channel (CNGC) activity. In this assay, the parental HEK293 cell line transfected with a cyclic-nucleotide gated ion channel (CNGC)-based cAMP sensor is used to measure inhibition of isoproterenol-induced CNGC activity by test compound.; type: functional; conditions: Homo sapiens
[20] = biological target: Luciferin 4-monooxygenase (Photinus pyralis, UniProt P08659); test: inhibition of purified Photinus pyralis luciferase – biochemical, luminescence, dose response (AID 1891)
Sequence of Luciferin 4-monooxygenase (P08659 whole entry): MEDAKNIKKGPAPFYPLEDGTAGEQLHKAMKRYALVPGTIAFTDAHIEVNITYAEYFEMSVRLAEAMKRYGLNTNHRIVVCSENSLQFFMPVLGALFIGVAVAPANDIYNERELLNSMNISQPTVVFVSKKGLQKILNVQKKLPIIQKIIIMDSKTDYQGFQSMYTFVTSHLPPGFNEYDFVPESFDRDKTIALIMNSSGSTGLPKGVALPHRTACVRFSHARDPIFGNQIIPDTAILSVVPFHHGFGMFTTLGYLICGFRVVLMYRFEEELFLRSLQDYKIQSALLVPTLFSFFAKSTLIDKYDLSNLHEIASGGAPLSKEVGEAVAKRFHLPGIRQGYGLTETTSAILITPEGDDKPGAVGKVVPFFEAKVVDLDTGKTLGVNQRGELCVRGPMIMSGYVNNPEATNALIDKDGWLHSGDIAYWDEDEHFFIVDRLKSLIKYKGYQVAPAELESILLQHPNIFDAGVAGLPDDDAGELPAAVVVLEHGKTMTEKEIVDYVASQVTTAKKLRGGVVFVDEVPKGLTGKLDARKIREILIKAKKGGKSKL

[21] = biological target: Neuropeptide Y receptor type 1 (Homo sapiens, UniProt P25929); test: Fluorescence-based counterscreen for agonists of NPY-Y2: cell-based high-throughput dose response assay for agonists of NPY-Y1.; type: functional
Sequence of Neuropeptide Y receptor type 1 (P25929 whole entry): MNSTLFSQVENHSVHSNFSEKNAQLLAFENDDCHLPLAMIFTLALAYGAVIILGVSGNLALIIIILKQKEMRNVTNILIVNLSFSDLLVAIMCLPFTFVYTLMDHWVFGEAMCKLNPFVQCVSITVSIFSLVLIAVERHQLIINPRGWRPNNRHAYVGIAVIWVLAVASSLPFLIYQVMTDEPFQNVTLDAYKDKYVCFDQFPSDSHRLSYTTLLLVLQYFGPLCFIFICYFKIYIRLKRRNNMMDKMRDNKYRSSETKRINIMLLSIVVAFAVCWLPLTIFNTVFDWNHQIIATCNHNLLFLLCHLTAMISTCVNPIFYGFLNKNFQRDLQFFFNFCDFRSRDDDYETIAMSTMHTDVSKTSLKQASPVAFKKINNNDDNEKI

[22] = biological target: Neuropeptide Y receptor type 2 (Homo sapiens, UniProt P49146); test: Fluorescence-based cell-based high-throughput dose response assay for agonists of NPY-Y2. [Related pubchem assays: 1703 (Screening assay (CNGC inhibitors).), 1359 (Screening assay (NPY-Y2 potentiators or agonists).), 1304 (Screening assay (NPY-Y1 potentiators or agonists).), 1710 (Screening assay (NPY-Y2 agonists).), 1791 (Summary AID.)]; type: functional
Sequence of Neuropeptide Y receptor type 2 (P49146 whole entry): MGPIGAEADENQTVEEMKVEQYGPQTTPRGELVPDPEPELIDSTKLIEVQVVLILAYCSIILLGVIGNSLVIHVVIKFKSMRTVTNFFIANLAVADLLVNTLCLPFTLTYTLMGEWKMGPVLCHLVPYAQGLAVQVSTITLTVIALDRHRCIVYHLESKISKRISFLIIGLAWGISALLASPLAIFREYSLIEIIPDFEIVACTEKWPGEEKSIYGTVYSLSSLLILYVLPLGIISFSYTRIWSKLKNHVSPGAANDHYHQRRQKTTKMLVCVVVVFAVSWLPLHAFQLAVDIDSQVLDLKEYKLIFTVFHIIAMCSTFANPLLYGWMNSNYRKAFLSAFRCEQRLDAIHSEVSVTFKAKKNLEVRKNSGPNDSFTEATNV

[23] = Luminescence Cell-Based Dose Confirmation HTS to Identify Inhibitors of Platelet Dense Granule Release. [Related pubchem assays: 1663 (Primary HTS), 1678 (Summary of Project)]; type: functional
Galanin receptor type 3 = Galanin receptor type 3 (Homo sapiens, UniProt O60755); test: Fluorescence-based cell-based primary high throughput dose response assay to identify antagonists of the Galanin Receptor 3 (GalR3).; type: functional
Sequence of Galanin receptor type 3 (O60755 whole entry): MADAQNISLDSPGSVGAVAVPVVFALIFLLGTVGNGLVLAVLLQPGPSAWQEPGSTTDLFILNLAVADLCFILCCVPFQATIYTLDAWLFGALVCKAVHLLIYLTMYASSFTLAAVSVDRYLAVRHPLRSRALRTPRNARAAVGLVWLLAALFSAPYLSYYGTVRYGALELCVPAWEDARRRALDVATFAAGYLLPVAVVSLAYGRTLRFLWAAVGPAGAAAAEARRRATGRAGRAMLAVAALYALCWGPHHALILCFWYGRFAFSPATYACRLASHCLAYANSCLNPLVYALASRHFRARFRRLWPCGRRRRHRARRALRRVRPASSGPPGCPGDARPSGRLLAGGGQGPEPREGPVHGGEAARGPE

Sequence of Genome polyprotein (Q2Q167 whole entry): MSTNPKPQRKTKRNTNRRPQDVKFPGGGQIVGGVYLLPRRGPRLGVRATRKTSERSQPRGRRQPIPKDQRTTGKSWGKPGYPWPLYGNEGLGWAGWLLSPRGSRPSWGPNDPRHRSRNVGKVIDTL

Q: Which IC50 (Genome polyprotein) does the source give for COc1cccc(/C=N/Nc2[nH]cnc3c4cc(C)ccc4nc2-3)c1OC here?
A: > 49.8 µM (not active)

Q: What about the IC50 [1] of the same molecule?
A: > 66.6 µM (inactive)

Q: What about the IC50 [2] of the same molecule?
A: 24.9 µM (not active)

Q: What about the IC50 [3] of the same molecule?
A: 3.73 µM (active)

Q: What about the IC50 (Insulin-degrading enzyme) of the same molecule?
A: 0.571 µM (active)

Q: What about the IC50 [4] of the same molecule?
A: 2.38 µM (active)

Q: With O=C(CCCCCn1c(=S)[nH]c2ccccc2c1=O)N1CCN(c2ccncc2)CC1 as the molecule, how does the IC50 (Estrogen receptor) read?
A: 0.03 µM (not active)

Q: Which AC50 [5] does the source give for CCCC(=O)N1CCN(c2ccc(NC(=O)c3ccc([N+](=O)[O-])o3)cc2Cl)CC1 here?
A: 36.6 µM (active)

Q: What about the CC50 (HeLa) of the same molecule?
A: 4.19 µM (active)

Q: What about the EC50 (HEK293 [6]) of the same molecule?
A: > 59.6 µM (inactive)

Q: And the AC50 [7]?
A: 8.17 µM (active)

Q: And the EC50 [8]?
A: 2.36 µM (active)

Q: And the EC50 (HEK293 [9])?
A: > 59.6 µM (inactive)

Q: And the AC50 [10]?
A: 0.7 µM (active)

Q: And the EC50 [11]?
A: 2.96 µM (active)

Q: What about the AC50 [12] of the same molecule?
A: 7.65 µM (active)

Q: Which EC50 [13] does the source give for NC(=S)N/N=C/c1ccc(C23CC4CC(CC(C4)C2)C3)cc1 here?
A: < 0.1 µM (active)

Q: What about the EC50 (Streptokinase A) of the same molecule?
A: 13.4 µM (active)

Q: What about the AC50 (INS1) of the same molecule?
A: 5.3 µM (active)

Q: And the EC50 [14]?
A: 1.31 µM (active)

Q: What about the EC50 [8] of the same molecule?
A: 0.387 µM (active)

Q: And the EC50 [15]?
A: 0.415 µM (active)

Q: What about the EC50 [16] of the same molecule?
A: < 0.1 µM (active)

Q: And the IC50 (NS3)?
A: 5.41 µM (active)

Q: And the EC50 (H4)?
A: 96.8 µM (active)

Q: What about the EC50 (Streptococcus) of the same molecule?
A: > 50 µM (not active)

Q: What about the EC50 [17] of the same molecule?
A: 0.324 µM (active)

Q: What about the EC50 [18] of the same molecule?
A: 2.4 µM (active)

Q: And the EC50 [11]?
A: 7.3 µM (active)

Q: Which results are given for Nc1cc(-c2ccc(Br)cc2)nn1Cc1ccccc1?
A: EC50 [13]: 7.99 µM (active); EC50 (cells): > 29.9 µM (inactive); EC50 (HEK293 [19]): 9.3 µM (active); EC50 [20]: > 112 µM (not active); EC50 [21]: 11.6 µM (not active); EC50 [16]: 18 µM (active); EC50 [22]: 13.1 µM (not active); EC50 [23]: > 112 µM (not active); IC50 (Galanin receptor type 3): 3.55 µM (active); EC50 (H4): 13.1 µM (active)
